Measured values: ChEMBL document CHEMBL3885881, “DrugMatrix”

Key:
Rattus norvegicus [1] = species: Rattus norvegicus; experiment: DrugMatrix - Regimen: Daily Repeat; type: toxicity, organism-based, Sprague-Dawley; design: regimen Daily Repeat, gender Male, age 6-8 weeks; settings: in vivo, po, 330 mg/kg, […], route oral GAVAGE, dose level High, time 14 day, vehicle .5 % CMC
Rattus norvegicus [2] = species: Rattus norvegicus; type: toxicity, organism-based, Sprague-Dawley; settings: in vivo, po, 330 mg/kg, 24 h, route oral GAVAGE, dose level High, time 1 day, vehicle .5 % CMC
Description: DrugMatrix - Regimen: Single

In the case of FERROCENE, the “ABSOLUTE BASOPHIL” value (Rattus norvegicus [1]; tissue Blood) is reported as 0 CELLS/uL, the “ABSOLUTE EOSINOPHIL” value (Rattus norvegicus [1]; tissue Blood) is reported as 150.8 CELLS/uL and the “ABSOLUTE LYMPHOCYTE” value (Rattus norvegicus [1]; tissue Blood) is reported as 17564.8 CELLS/uL. For the same sequence, the “ABSOLUTE MONOCYTE” value (Rattus norvegicus [1]; tissue Blood) was 546.8 CELLS/uL, the “ABSOLUTE SEGMENTED NEUTROPHIL” value (Rattus norvegicus [1]; tissue Blood) was 2837.6 CELLS/uL and the BASOPHIL (Rattus norvegicus [1]; tissue Blood) was 0%. The EOSINOPHIL (Rattus norvegicus [1]; tissue Blood) was 0.8%, the “ERYTHROCYTE COUNT” value (Rattus norvegicus [1]; tissue Blood) was 5.16 x10E6/uL and the HEMATOCRIT (Rattus norvegicus [1]; tissue Blood) was 32.2%. For the same sequence, the HEMOGLOBIN (Rattus norvegicus [1]; tissue Blood) was 11.86 G/DL, the “LEUKOCYTE COUNT” value (Rattus norvegicus [1]; tissue Blood) was 21.1 x10E3/uL and the LYMPHOCYTE (Rattus norvegicus [1]; tissue Blood) was 83.2%. For the same sequence, the “MEAN CORPUSCULAR HEMOGLOBIN” value (Rattus norvegicus [1]; tissue Blood) was 23.1 pg, the “MEAN CORPUSCULAR HEMOGLOBIN CONCENTRATION” value (Rattus norvegicus [1]; tissue Blood) was 36.82 G/DL and the MONOCYTE (Rattus norvegicus [1]; tissue Blood) was 2.6%. The NEUTROPHIL (Rattus norvegicus [1]; tissue Blood) was 13.4%, the “NUCLEATED RED BLOOD CELLS” value (Rattus norvegicus [1]; tissue Blood) was 0 /100WBC and the “PLATELET COUNT” value (Rattus norvegicus [1]; tissue Blood) was 1348 x10E3/uL. The “ALANINE AMINOTRANSFERASE” value (Rattus norvegicus [1]; tissue Plasma) was 39.6 u/L, the ALBUMIN (Rattus norvegicus [1]; tissue Plasma) was 4.42 G/DL and the “ALKALINE PHOSPHATASE” value (Rattus norvegicus [1]; tissue Plasma) was 217.6 u/L. The “ASPARTATE AMINOTRANSFERASE” value (Rattus norvegicus [1]; tissue Plasma) was 59.8 u/L, the “BLOOD UREA NITROGEN” value (Rattus norvegicus [1]; tissue Plasma) was 15.2 mg/dL and the “CARBON DIOXIDE” value (Rattus norvegicus [1]; tissue Plasma) was 25 mmol/L. It also gave a CHOLESTEROL (Rattus norvegicus [1]; tissue Plasma) of 87.2 mg/dL, a CREATININE (Rattus norvegicus [1]; tissue Plasma) of 0.19 mg/dL and a GLUCOSE (Rattus norvegicus [1]; tissue Plasma) of 182.6 mg/dL. For the same sequence, the LIPASE (Rattus norvegicus [1]; tissue Plasma) was 10.2 u/L, the PHOSPHORUS (Rattus norvegicus [1]; tissue Plasma) was 12.74 mg/dL and the “TOTAL BILIRUBIN” value (Rattus norvegicus [1]; tissue Plasma) was 0.22 mg/dL. The “TOTAL PROTEIN” value (Rattus norvegicus [1]; tissue Plasma) was 6.84 G/DL, the “URIC ACID” value (Rattus norvegicus [1]; tissue Plasma) was 2.68 mg/dL and the “ABSOLUTE EOSINOPHIL” value (Rattus norvegicus [2]; tissue Blood) was 50.33 CELLS/uL. For the same sequence, the “ABSOLUTE LYMPHOCYTE” value (Rattus norvegicus [2]; tissue Blood) was 10757 CELLS/uL, the “ABSOLUTE MONOCYTE” value (Rattus norvegicus [2]; tissue Blood) was 373 CELLS/uL and the “ABSOLUTE SEGMENTED NEUTROPHIL” value (Rattus norvegicus [2]; tissue Blood) was 1253 CELLS/uL. For the same sequence, the BASOPHIL (Rattus norvegicus [2]; tissue Blood) was 0%, the EOSINOPHIL (Rattus norvegicus [2]; tissue Blood) was 0.33% and the “ERYTHROCYTE COUNT” value (Rattus norvegicus [2]; tissue Blood) was 5.36 x10E6/uL. For the same sequence, the HEMATOCRIT (Rattus norvegicus [2]; tissue Blood) was 33.23%, the HEMOGLOBIN (Rattus norvegicus [2]; tissue Blood) was 12.53 G/DL and the “LEUKOCYTE COUNT” value (Rattus norvegicus [2]; tissue Blood) was 12.43 x10E3/uL. For the same sequence, the LYMPHOCYTE (Rattus norvegicus [2]; tissue Blood) was 87%, the “MEAN CORPUSCULAR HEMOGLOBIN” value (Rattus norvegicus [2]; tissue Blood) was 23.47 pg and the “MEAN CORPUSCULAR HEMOGLOBIN CONCENTRATION” value (Rattus norvegicus [2]; tissue Blood) was 37.7 G/DL. For the same sequence, the MONOCYTE (Rattus norvegicus [2]; tissue Blood) was 3%, the NEUTROPHIL (Rattus norvegicus [2]; tissue Blood) was 9.67% and the “NUCLEATED RED BLOOD CELLS” value (Rattus norvegicus [2]; tissue Blood) was 0 /100WBC. The “PLATELET COUNT” value (Rattus norvegicus [2]; tissue Blood) was 1189.67 x10E3/uL, the “ALANINE AMINOTRANSFERASE” value (Rattus norvegicus [2]; tissue Plasma) was 42.67 u/L and the ALBUMIN (Rattus norvegicus [2]; tissue Plasma) was 4.5 G/DL. For the same sequence, the “ALKALINE PHOSPHATASE” value (Rattus norvegicus [2]; tissue Plasma) was 371.33 u/L, the “ASPARTATE AMINOTRANSFERASE” value (Rattus norvegicus [2]; tissue Plasma) was 77 u/L and the “BLOOD UREA NITROGEN” value (Rattus norvegicus [2]; tissue Plasma) was 11.67 mg/dL. The “CARBON DIOXIDE” value (Rattus norvegicus [2]; tissue Plasma) was 26.33 mmol/L, the CREATININE (Rattus norvegicus [2]; tissue Plasma) was 0.18 mg/dL and the “LACTATE DEHYDROGENASE” value (Rattus norvegicus [2]; tissue Plasma) was 127.67 u/L. For the same sequence, the LIPASE (Rattus norvegicus [2]; tissue Plasma) was 8.33 u/L, the PHOSPHORUS (Rattus norvegicus [2]; tissue Plasma) was 12.47 mg/dL and the POTASSIUM (Rattus norvegicus [2]; tissue Plasma) was 6.09 MEQ/L. The “TOTAL BILIRUBIN” value (Rattus norvegicus [2]; tissue Plasma) was 0.13 mg/dL, the “TOTAL PROTEIN” value (Rattus norvegicus [2]; tissue Plasma) was 6.33 G/DL and the “URIC ACID” value (Rattus norvegicus [2]; tissue Plasma) was 1.03 mg/dL.
